Measured values published in patent US20250295701A1, “Kit for Induction of Continuous Expansion of Hepatoblast Organoids and/or Hepatocyte Organoids Under 3D Suspension Conditions and Use Thereof” (South China University of Technology, priority 2022, published 2025).
One block for each compound: values may come before it.

How the values were obtained:
hepatoblasts = assay: Step-down removal of factors from the HB organoid expansion medium; type: cell-based, human; settings: for Ki67 expression level after removing the factor: flow cytometry, compared with complete medium group
Source text: Based on the related-signaling pathways affecting the regeneration/proliferation/expansion of hepatoblasts in vivo and in vitro, the development of the medium formula for HB organoid expansion was to initially select small molecules or cytokines corresponding to the pathways to mimic the process of hepatic progenitor regeneration, and finally the combination of small molecules with cytokines had been established. Through comprehensive investigation on a large amount of literature, it had been shown that Wnt, TGFβ, cAMP, Activin, EGF and HGF pathways were related to the regeneration of hepatoblasts. […] Afterwards, the step-down method through removing factors one by one from the combination had been used to verify which small molecule/cytokine was essential for the long-term culture of hepatoblasts. […] Finally, flow cytometry had been used to detect the expression levels of cell proliferation marker Ki67. […] Therefore, finally the expansion medium of HB organoid was determined as the fifth medium in Example 1: IMDM medium supplemented with 10 % w/w FBS, 1% w/w ITS, 1% w/w NEAA, 1% w/w GlutaMAX, 10 mM Nicotinamide, 5 μM CHIR99021, 10 µM SB431542, 10 μM FSK, 20 ng/mL FGF-4, 20 ng/mL BMP4, 20 ng/mL EGF and 5% Matrigel.

[1] = system: polarized hepatocyte organoids; assay: Cholestasis detection by CDFDA staining; type: cell-based, human; settings: drug at its IC25 value for 48 hours
Experimental: In addition, CDFDA staining was used to test the appearance of the cholestasis in polarized hepatocyte organoids which are treated by these drugs at IC25 values of each drug for 48 hours, and then the occurrence of the cholestasis after drug treatment was evaluated by whether fluorescent CDFDA product is transported into bile canaliculi through apical protein.

[2] = system: polarized hepatocyte organoids; assay: Drug toxicology analysis (cell viability, IC50) in polarized hepatocyte organoids; type: cell-based, human; settings: 48 hours after drug treatment, cell viability detection kit
Experimental: Polarized hepatocyte organoids (could be used in drug screening models 6 days after the maturation) after the maturation from the differentiation were collected, and distributed into ultra-low attachment 96-well culture plates using the pipette, about 10-20 organoids were seeded in each well, then different drugs could be employed for toxicology analysis. In this Example, toxicology analysis was performed on 8 kinds of drugs (Mannitol, Troglitazone, Chlorpromazine, Diclofenac, Cyclosporine A, Nefazodone, Tolcapone, Bosentan) to detect the ability of polarized hepatocyte organoids to predict the toxicity of each drug during drug screening/toxicology analysis. During the toxicology analysis, at least 7 different concentrations were selected for each drug, and wells in triplicate were performed for each concentration. Forty-eight hours after drug treatment, cell viabilities are detected using cell viability detection kit and IC50 curves were drawn. Finally, IC50 value of each drug for each cell type was calculated. In addition to polarized hepatocyte organoids, non-polarized hepatocyte spheroids and HepG2 cells (hepatoma cell lines, commonly used for hepatocyte drug screening) spheroids were also simultaneously used for drug toxicology analysis.

hepatocyte organoids = assay: Hepatocyte lipid accumulation model induced with oleic acid; type: cell-based, human
Experimental: After mature hepatocyte organoids were differentiated from long-term cultured HB organoids (the lipid accumulation model could be developed 6 days after the differentiation), oleic acid (OA) was used with the concentrations at 200 and 800 μM to induce the lipid accumulation model. […] Next spermidine (SPD), a drug that alleviates lipid accumulation in hepatocytes, was used to conduct the rescue. SPD was added into the medium at 200 μM at the same time during the treatment with OA. […] The above results lay the foundation for the subsequent applications of polarized hepatocyte organoids in the development of drugs related to hepatocyte lipid accumulation and the treatment of lipid accumulation.

[3] = system: phase I metabolizing enzymes
[4] = factor removed from complete medium

Compound: Cc1c[nH]c(-c2cnc(NCCNc3ccc(C#N)cn3)nc2-c2ccc(Cl)cc2Cl)n1 [CHIR99021]
efficiency of cloning formation after removing the factor (hepatoblasts; [4]): significantly reduced
morphological changes of cell spheroids after removing the factor (hepatoblasts; [4]): unable to form hollow organoid-like structures

occurrence of the cholestasis [1]: do not induce the cholestasis
Compound: O=C(O)Cc1ccccc1Nc1c(Cl)cccc1Cl [Dicofenac, Diclofenac]

occurrence of the cholestasis [1]: do not induce the cholestasis
Compound: OC[C@@H](O)[C@@H](O)[C@H](O)[C@H](O)CO [Mannitol]
toxicity to hepatocytes [2]: no toxic

Compound: CCCCCCCC/C=C\CCCCCCCC(=O)O [OA, oleic acid]
levels of intracellular ROS (hepatocyte organoids; OA 200 and 800 μM, flow cytometry): increased
levels of intracellular triglyceride (hepatocyte organoids; OA 200 and 800 μM, kit): increase
content of lipid droplets (hepatocyte organoids; OA 200 and 800 μM, two days, oil red staining): gradually increased
expression levels of lipid accumulation related genes FASN and PLIN2 (hepatocyte organoids; after OA modeling, qPCR): significantly increased

Compound: NC(=O)c1ccc(-c2nc(-c3ccc4c(c3)OCO4)c(-c3ccccn3)[nH]2)cc1 [SB431542]
efficiency of cloning formation after removing the factor (hepatoblasts; [4]): significantly reduced

Compound: NCCCCNCCCN [SPD, spermidine]
relative number of lipid droplets (hepatocyte organoids; SPD 200 μM added with OA, two days): significantly reduced
expression levels of genes related to lipid accumulation (hepatocyte organoids; SPD 200 μM added with OA, two days, qPCR): decreased

occurrence of the cholestasis [1]: do not induce the cholestasis
Compound: Cc1ccc(C(=O)c2cc(O)c(O)c([N+](=O)[O-])c2)cc1 [Tolcapone]

Compound: C[C@@H](N)[C@H]1CC[C@H](C(=O)Nc2ccncc2)CC1 [Y27632, Y-27632]
effect of Rock inhibitor during the expansion of HB organoids (hepatoblasts; added at cell inoculation): only maintains cell viability at day 0
Ki67 expression level after removing the factor (hepatoblasts): higher expression peak

drug metabolism levels (metabolic function of CYP3A4, CYP2C9 and CYP1A2) [3]: higher
Compound: COc1ccc2[nH]c([S+]([O-])Cc3ncc(C)c(OC)c3C)nc2c1 (centres unmarked) [omeprazole]

Compound: hepatocyte growth factor [HGF]
Ki67 expression level after removing the factor (hepatoblasts): higher expression peak
